From BindingDB's records for doi:10.1124/jpet.102.040394 (Merck Sharp and Dohme Research Laboratories, 2002) come the findings set out here.

In test [1] the target is Transient receptor potential cation channel subfamily V member 1 (Rattus norvegicus, UniProt O35433).
The target in test [2] is Transient receptor potential cation channel subfamily V member 1 (Homo sapiens, UniProt Q8NER1).
Sequence of Transient receptor potential cation channel subfamily V member 1 (Homo sapiens, UniProt Q8NER1) (Q8NER1 whole entry): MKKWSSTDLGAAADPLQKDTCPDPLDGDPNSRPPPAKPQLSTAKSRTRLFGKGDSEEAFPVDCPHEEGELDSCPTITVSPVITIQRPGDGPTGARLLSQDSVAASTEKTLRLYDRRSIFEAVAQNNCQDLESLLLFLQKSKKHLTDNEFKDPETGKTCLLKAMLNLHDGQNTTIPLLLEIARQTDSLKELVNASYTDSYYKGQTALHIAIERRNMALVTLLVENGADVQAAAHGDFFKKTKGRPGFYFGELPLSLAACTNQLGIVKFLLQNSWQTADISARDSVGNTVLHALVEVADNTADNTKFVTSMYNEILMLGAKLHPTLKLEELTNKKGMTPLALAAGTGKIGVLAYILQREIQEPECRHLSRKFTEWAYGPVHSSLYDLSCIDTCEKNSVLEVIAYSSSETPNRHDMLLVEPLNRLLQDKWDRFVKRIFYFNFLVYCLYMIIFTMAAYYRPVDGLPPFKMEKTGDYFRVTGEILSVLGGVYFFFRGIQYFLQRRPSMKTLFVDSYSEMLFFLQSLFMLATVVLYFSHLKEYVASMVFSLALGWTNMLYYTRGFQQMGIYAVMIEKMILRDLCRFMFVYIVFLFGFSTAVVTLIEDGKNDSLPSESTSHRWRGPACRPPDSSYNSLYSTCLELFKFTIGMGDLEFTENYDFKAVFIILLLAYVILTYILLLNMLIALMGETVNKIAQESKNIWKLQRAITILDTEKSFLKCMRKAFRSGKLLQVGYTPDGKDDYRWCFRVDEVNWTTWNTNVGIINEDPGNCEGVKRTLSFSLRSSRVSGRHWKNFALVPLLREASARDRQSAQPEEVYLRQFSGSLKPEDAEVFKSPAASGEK

Sequence of Transient receptor potential cation channel subfamily V member 1 (Rattus norvegicus, UniProt O35433) (O35433 whole entry): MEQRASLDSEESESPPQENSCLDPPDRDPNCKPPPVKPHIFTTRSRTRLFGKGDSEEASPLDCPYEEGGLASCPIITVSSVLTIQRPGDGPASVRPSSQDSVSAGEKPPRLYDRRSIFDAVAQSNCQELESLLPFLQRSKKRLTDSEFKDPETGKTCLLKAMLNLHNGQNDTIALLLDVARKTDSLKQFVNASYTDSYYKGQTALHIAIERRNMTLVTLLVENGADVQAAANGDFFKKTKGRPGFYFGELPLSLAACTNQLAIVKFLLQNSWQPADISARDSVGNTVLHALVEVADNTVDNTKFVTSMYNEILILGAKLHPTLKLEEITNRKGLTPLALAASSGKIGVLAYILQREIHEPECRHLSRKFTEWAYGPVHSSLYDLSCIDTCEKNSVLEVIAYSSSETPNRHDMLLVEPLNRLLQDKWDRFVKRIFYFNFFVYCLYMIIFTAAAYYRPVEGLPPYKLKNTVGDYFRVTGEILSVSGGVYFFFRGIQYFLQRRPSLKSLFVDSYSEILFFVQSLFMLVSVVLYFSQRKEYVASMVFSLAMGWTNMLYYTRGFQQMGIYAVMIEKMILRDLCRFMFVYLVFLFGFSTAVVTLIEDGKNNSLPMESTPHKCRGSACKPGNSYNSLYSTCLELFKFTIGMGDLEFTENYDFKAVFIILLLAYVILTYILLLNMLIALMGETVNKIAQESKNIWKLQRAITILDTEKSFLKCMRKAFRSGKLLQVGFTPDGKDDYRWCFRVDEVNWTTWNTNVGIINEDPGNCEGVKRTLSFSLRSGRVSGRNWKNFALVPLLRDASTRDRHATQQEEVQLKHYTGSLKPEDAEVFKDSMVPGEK

For the molecule `C=C(C)[C@]12C[C@@H](C)[C@@]34O[C@](Cc5ccccc5)(O[C@@H]1[C@@H]3C(COC(=O)Cc1cc(I)c(O)c(OC)c1)=CC[C@@H]1C(=O)C(C)=C[C@H]14)O2` [5'-IODORESINIFERATOXIN], the Ki (in general, a measure of affinity in units of concentration, obtained from inhibition or displacement) is 0.39 nM in test [1] and 6.7 nM in test [2].
For `Oc1cc2c(cc1O)CN(C(=S)NCCc1ccc(Cl)cc1)CCC2` [N-[2-(4-chlorophenyl)ethyl]-7,8-dihydroxy-2,3,4,5-tetrahydro-1H-2-benzazepine-2-carbothioamide], in test [1], the affinity corresponds to a Ki of 4300 nM.
